{"source": "paper PMC11285948", "about": "“The effects of CYP2B6 inactivators on the metabolism of ciprofol” (PLOS ONE, 2024)", "system": "rat liver microsomes (RLMs)", "assay": "Ciprofol metabolism in RLM incubation system (incubation time, protein concentration, enzyme kinetics)", "format": "in vitro ADME", "details": "for reduction of ciprofol ΔC (Enzymatic reaction kinetics): ΔC1-ΔC3 and Mean; for ciprofol concentration in incubation system (Incubation time) / ciprofol concentration in incubation system (Liver microsomal protein concentration): C1-C3 and Mean; for ciprofol concentration in incubation system (Liver microsomal protein concentration): RLMs, ciprofol 25 μg·mL^-1, 40 min", "method": "The volume of the incubation system was 200 μL and included 2 μL of substrate (ciprofol), 8 μL of rat liver microsomes (RLMs) or 6 μL of human liver microsomes (HLMs), 12 μL of NADPH generation system of solution (solution A 10 μL, solution B 2 μL), and the remaining volume was PBS. The incubation was performed in a water bath at a constant temperature of 37°C, and each sample was incubated three times in parallel.\nThe incubation system was removed from the water bath, and the reaction was terminated immediately by adding 800 μL of reaction termination solution (acetonitrile solution containing 5 μg·mL^-1 D6-ciprofol at 4°C). The mixture was vortexed for 2 min and centrifuged for 15 min, after which the supernatant was transferred to an autosampler vial for HPLC-MS/MS detection.\nThe concentrations of ciprofol and liver microsomal proteins in the RLM incubation system were set at 25 μg·mL^-1 and 0.8 mg·mL^-1, respectively, whereas those in the HLM incubation system were set at 40 μg·mL^-1 and 0.6 mg·mL^-1, respectively. Samples were obtained and assayed after 0, 10, 20, 30, 40, 60, 80, 100 and 120 min of incubation, and the optimum incubation time was determined according to the decreasing trend in ciprofol concentration.\nThe ciprofol concentrations in the RLM and HLM incubation systems were set at 25 and 40 μg·mL^-1, respectively. The liver microsomal protein concentrations were 0, 0.1, 0.2, 0.4, 0.6, 0.8 and 1.0 mg·mL^-1. The optimal protein concentration in the incubation system was determined based on the reduction of ciprofol (ΔC) after 40 min of incubation in RLMs and 60 min in HLMs.\nThe liver microsomal protein concentrations in the RLM incubation system and the HLM incubation system were 0.8 mg·mL^-1 and 0.6 mg·mL^-1, and the cells were incubated for 40 min and 60 min, respectively. The ciprofol concentrations in the incubation system were set at 4, 8, 16, 32, 48 and 80 μg·mL^-1, and the kinetic parameters of ciprofol metabolism were investigated based on ΔC values at different initial ciprofol concentrations (C0).\nThe substrate elimination method was employed in this study, and GraphPad Prism 8.0.2 software was used for statistical processing, including determination of the kinetic parameters of ciprofol metabolism and the IC50 values of psoralen and clopidogrel for ciprofol metabolism. The maximum velocity (Vmax), Michaelis constant (Km) and intrinsic clearance (CLint) were calculated using the […]: V=Vmax×[S]/Km+[S] CLint=Vmax/Km", "note": "Where “and” joins values, the source holds several entries; their conditions need not be identical. Identical values can stand only once."}
{"smiles": "CC(C)c1cccc([C@H](C)C2CC2)c1O", "note": "[ciprofol]", "values": [{"measurement": "Km of ciprofol metabolism", "setting": "RLMs 0.8 mg·mL^-1, 40 min", "value": 25.11, "unit": "µg/mL"}, {"measurement": "Vmax of ciprofol metabolism", "setting": "RLMs 0.8 mg·mL^-1, 40 min", "value": 14.06, "unit": "ng·min^-1·mg protein^-1"}, {"measurement": "reduction of ciprofol ΔC (Enzymatic reaction kinetics)", "setting": "RLMs 0.8 mg·mL^-1, 40 min, initial ciprofol C 4 μg/mL", "value": "2.12 µg/mL and 1.71 µg/mL and 2.14 µg/mL and 1.99 µg/mL"}, {"measurement": "reduction of ciprofol ΔC (Enzymatic reaction kinetics)", "setting": "RLMs 0.8 mg·mL^-1, 40 min, initial ciprofol C 8 μg/mL", "value": "3.40 µg/mL and 3.72 µg/mL and 3.90 µg/mL and 3.68 µg/mL"}, {"measurement": "reduction of ciprofol ΔC (Enzymatic reaction kinetics)", "setting": "RLMs 0.8 mg·mL^-1, 40 min, initial ciprofol C 16 μg/mL", "value": "5.07 µg/mL and 6.04 µg/mL and 4.94 µg/mL and 5.35 µg/mL"}, {"measurement": "reduction of ciprofol ΔC (Enzymatic reaction kinetics)", "setting": "RLMs 0.8 mg·mL^-1, 40 min, initial ciprofol C 32 μg/mL", "value": "7.10 µg/mL and 8.64 µg/mL and 7.63 µg/mL and 7.79 µg/mL"}, {"measurement": "reduction of ciprofol ΔC (Enzymatic reaction kinetics)", "setting": "RLMs 0.8 mg·mL^-1, 40 min, initial ciprofol C 48 μg/mL", "value": "9.57 µg/mL and 8.62 µg/mL and 8.97 µg/mL and 9.05 µg/mL"}, {"measurement": "reduction of ciprofol ΔC (Enzymatic reaction kinetics)", "setting": "RLMs 0.8 mg·mL^-1, 40 min, initial ciprofol C 80 μg/mL", "value": "10.20 µg/mL and 11.72 µg/mL and 10.73 µg/mL and 10.88 µg/mL"}, {"measurement": "ciprofol concentration in incubation system (Incubation time)", "setting": "RLMs 0.8 mg·mL^-1, ciprofol 25 μg·mL^-1, T 0 min", "value": "25.04 µg/mL and 26.05 µg/mL and 27.04 µg/mL and 26.04 µg/mL"}, {"measurement": "ciprofol concentration in incubation system (Incubation time)", "setting": "RLMs 0.8 mg·mL^-1, ciprofol 25 μg·mL^-1, T 10 min", "value": "21.96 µg/mL and 25.48 µg/mL and 25.19 µg/mL and 24.21 µg/mL"}, {"measurement": "ciprofol concentration in incubation system (Incubation time)", "setting": "RLMs 0.8 mg·mL^-1, ciprofol 25 μg·mL^-1, T 20 min", "value": "20.63 µg/mL and 19.64 µg/mL and 23.74 µg/mL and 21.34 µg/mL"}, {"measurement": "ciprofol concentration in incubation system (Incubation time)", "setting": "RLMs 0.8 mg·mL^-1, ciprofol 25 μg·mL^-1, T 30 min", "value": "17.46 µg/mL and 18.48 µg/mL and 22.67 µg/mL and 19.53 µg/mL"}, {"measurement": "ciprofol concentration in incubation system (Incubation time)", "setting": "RLMs 0.8 mg·mL^-1, ciprofol 25 μg·mL^-1, T 40 min", "value": "16.32 µg/mL and 16.15 µg/mL and 19.54 µg/mL and 17.34 µg/mL"}, {"measurement": "ciprofol concentration in incubation system (Incubation time)", "setting": "RLMs 0.8 mg·mL^-1, ciprofol 25 μg·mL^-1, T 60 min", "value": "15.01 µg/mL and 16.57 µg/mL and 18.99 µg/mL and 16.86 µg/mL"}, {"measurement": "ciprofol concentration in incubation system (Incubation time)", "setting": "RLMs 0.8 mg·mL^-1, ciprofol 25 μg·mL^-1, T 80 min", "value": "13.80 µg/mL and 14.14 µg/mL and 18.20 µg/mL and 15.38 µg/mL"}, {"measurement": "ciprofol concentration in incubation system (Incubation time)", "setting": "RLMs 0.8 mg·mL^-1, ciprofol 25 μg·mL^-1, T 100 min", "value": "12.48 µg/mL and 12.69 µg/mL and 17.81 µg/mL and 14.32 µg/mL"}, {"measurement": "ciprofol concentration in incubation system (Incubation time)", "setting": "RLMs 0.8 mg·mL^-1, ciprofol 25 μg·mL^-1, T 120 min", "value": "11.61 µg/mL and 11.81 µg/mL and 16.86 µg/mL and 13.43 µg/mL"}, {"measurement": "ciprofol concentration in incubation system (Liver microsomal protein concentration)", "setting": "Cprotein 0 mg/mL", "value": "24.55 µg/mL and 25.68 µg/mL and 26.29 µg/mL and 25.50 µg/mL"}, {"measurement": "ciprofol concentration in incubation system (Liver microsomal protein concentration)", "setting": "Cprotein 0.1 mg/mL", "value": "23.43 µg/mL and 22.66 µg/mL and 24.40 µg/mL and 23.50 µg/mL"}, {"measurement": "ciprofol concentration in incubation system (Liver microsomal protein concentration)", "setting": "Cprotein 0.2 mg/mL", "value": "21.66 µg/mL and 22.34 µg/mL and 19.74 µg/mL and 21.25 µg/mL"}, {"measurement": "ciprofol concentration in incubation system (Liver microsomal protein concentration)", "setting": "Cprotein 0.4 mg/mL", "value": "19.22 µg/mL and 19.23 µg/mL and 17.57 µg/mL and 18.67 µg/mL"}, {"measurement": "ciprofol concentration in incubation system (Liver microsomal protein concentration)", "setting": "Cprotein 0.6 mg/mL", "value": "19.49 µg/mL and 17.16 µg/mL and 15.28 µg/mL and 17.31 µg/mL"}, {"measurement": "ciprofol concentration in incubation system (Liver microsomal protein concentration)", "setting": "Cprotein 0.8 mg/mL", "value": "18.46 µg/mL and 15.72 µg/mL and 14.74 µg/mL and 16.31 µg/mL"}, {"measurement": "ciprofol concentration in incubation system (Liver microsomal protein concentration)", "setting": "Cprotein 1 mg/mL", "value": "17.05 µg/mL and 19.78 µg/mL and 13.60 µg/mL and 16.81 µg/mL"}]}
